Experimental data published in article PMC3335202 (Journal of Medicinal Chemistry, 2012).
Where two headings read alike, the source gives them in different places.

Legend:
[1] = tested on: Human embryonic stem cell H9 lines carrying MYH6-mCherry reporters; experiment: hESC cardiogenesis assay; format: cell-based; details: hESCs, dose-response behaviour
[2] = tested on: HEK293T cells
[3] = tested on: Human embryonic stem cell H9 lines carrying MYH6-mCherry reporters; details: cited from earlier work
[4] = Chemical stability in phosphate buffer; format: physicochemical; details: 10 μM, phosphate buffer pH 7.4, up to 30 hours, HPLC
[5] = tested on: β-catenin-dependent canonical Wnt pathway; experiment: Wnt inhibition assay; format: cell-based, human; details: for IC50: Wnt inhibition; for fold less potent in Wnt inhibition: compared with the well-tolerated parent (9/1)
[6] = Homo sapiens, HEK-293T, HEK293T cells

O=C(Nc1cccc2cccnc12)c1ccc(N2C(=O)[C@@H]3[C@H](C2=O)[C@@H]2C=C[C@H]3C2)cc1 [Compound 1, reference compound]
induction of cardiogenesis (class in words) [1]: dose-dependent induction of cardiogenesis functional activity
cell toxicity ([2]; human): not toxic to HEK293T cells

Oc1nc(-c2ccc(C(F)(F)F)cc2)nc2c1CSCC2 [Compound 2]
fold less potent than 1 and 3 (cardiogenesis) ([3]; hESCs): about 1.5 fold
maximum efficacious concentration for cardiogenesis ([3]; hESCs): 2 µM
cell toxicity [2]: did not induce cell toxicity

Cc1ccc2nc(NC(=O)CSc3nc4c(c(=O)n3-c3ccc(F)cc3)SCC4)sc2c1 [Compound 3]
maximum efficacious concentration for cardiogenesis ([3]; hESCs): 2.5 µM

COc1ccc(/C=C2/SC(=S)N(CCCC(=O)O)C2=O)cc1OC [Compound 4]
cardiogenic activity (in words) ([3]; at 50 μM): weakly cardiogenic

CC(=O)c1ccccc1NC(=O)[C@H]1CC[C@H](N2C(=O)[C@@H]3[C@@H]4CC[C@@H](C4)[C@@H]3C2=O)CC1 [Compound 28, 4-(cis-endo-1,3-Dioxooctahydro-2H-4,7-methanoisoindol-2-yl)-N-(2-acetylphenyl)-trans-cyclohexyl carboxamide]
degradation in phosphate buffer [4]: No degradation was observed
induction of cardiogenesis (class in words) [1]: potent stimulators of cardiogenesis

O=C1[C@@H]2[C@@H]3CC[C@@H](C3)[C@@H]2C(=O)N1[C@H]1CC[C@H](C(=O)Nc2cccnc2)CC1 [Compound 32, 4-(cis-endo-(1,3-Dioxooctahydro-2H-4,7-methanoisoindol-2-yl))-N-(pyridin-3-yl)-trans-cyclohexyl carboxamide]
IC50 [5, 6]: ~100 nM
degradation in phosphate buffer [4]: No degradation was observed
induction of cardiogenesis (class in words) [1]: functionally inactive as inducers of cardiogenesis

O=C1[C@@H]2[C@@H]3CC[C@@H](C3)[C@@H]2C(=O)N1[C@H]1CC[C@H](C(=O)Nc2ccncc2)CC1 [Compound 33, 4-(cis-endo-(1,3-Dioxooctahydro-2H-4,7-methanoisoindol-2-yl))-N-(pyridin-4-yl)-trans-cyclohexyl carboxamide]
IC50 [5, 6]: ~100 nM
induction of cardiogenesis (class in words) [1]: functionally inactive as inducers of cardiogenesis

O=C(Nc1cccc2cccnc12)c1ccc(N2C(=O)[C@@H]3[C@H]4CC[C@H](CC4)[C@@H]3C2=O)cc1 [Compound 37, 4-cis-endo-(Hexahydro-1H-4,7-ethanoisoindole-1,3(2H)-dion-2-yl)-N-(quinolin-8-yl) benzamide]
IC50 [5, 6]: > 200 nM
fold less potent in Wnt inhibition [5]: > 10 fold
induction of cardiogenesis (class in words) [1]: functionally inactive as inducers of cardiogenesis

O=C(Nc1cccc2cccnc12)c1ccc(N2C(=O)C3C(C2=O)[C@H]2CC[C@@H]3O2)cc1 (stereo partly shown) [Compound 39, 4-(Hexahydro-1H-4,7-epoxyisoindole-1,3(2H)-dion-2-yl)-N-(quinolin-8-yl)benzamide]
fold less potent in Wnt inhibition [5]: > 10 fold
induction of cardiogenesis (class in words) [1]: functionally inactive as inducers of cardiogenesis

N-[4-((3aR,4S,7R,7aS)-1,3,3a,4,7,7a-Hexahydro-1,3-dioxo-4,7-methano-2H-isoindol-2-yl)phenyl]-quinoline-8-carboxamide [Compound 52]
% inhibition (1 μM) ([5]; Wnt inhibition at 1 μM, HEK293T cells): 91 ± 1%
IC50 ([5]; HEK293T cells): 119 ± 9 nM
induction of cardiogenesis (class in words) [1]: functionally inactive as inducers of cardiogenesis
